20 compounds from patent US20230011571A1, “SMALL MOLECULE FURIN INHIBITORS FOR TREATING INFECTIOUS DISEASES” (BP Asset V, Inc., priority 2019, published 2023) can be followed below.

Common to all, as to assay type: cell-based
The subject of assay [1] is Chikungunya virus (CHIKV). The assay is described as follows: microbe, parasite or virus in culture. To be noted: Chikungunya virus, Vero, 48 h, read-out: Percent viral inhibition CHKV.
Assay [2] deals with Marburg virus (MARV). Put plainly: organism not typed. The conditions noted are these: Vero, 72 h, read-out: Percent viral inhibition MARV.
The test system of assay [3] is dengue virus (DENV). Put plainly: microbe, parasite or virus in culture. The conditions noted are these: Dengue virus, Vero, 120 h, read-out: Percent viral inhibition DENY.

With `CN1C[C@@H]2C[C@H]1CN2c1ccc(Oc2cc(CN3CCC(CC(=O)O)CC3)cc(-c3cc(Cl)cc(Cl)c3)n2)nn1` [Example 357, 2-(1-((2-(3,5-dichlorophenyl)-6-((6-((1S,4S)-5-methyl-2,5-diazabicyclo[2.2.1]heptan-2-yl)pyridazin-3-yl)oxy)pyridin-4-yl)methyl)piperidin-4-yl)acetic acid], the figures for the inhibition at 1 µM in assay [1], in assay [2] and in assay [3] were 38.6%, 100% and 61.2%, respectively.

Take `CCN1CCN(c2ccc(Oc3cc(CN4CCC(CC(=O)O)CC4)cc(-c4cc(Cl)cc(Cl)c4)n3)nn2)CC1` [Example 358, 2-(1-((2-(3,5-dichlorophenyl)-6-((6-(4-ethylpiperazin-1-yl)pyridazin-3-yl)oxy)pyridin-4-yl)methyl)piperidin-4-yl)acetic acid]: the inhibition at 1 µM in assay [1] was 20.4%; in assay [2] it was 49%; in assay [3], 67.1%.

For `CN1CCN(c2ccc(Oc3cc(CN4CCC(CC(=O)O)CC4)cc(-c4cc(Cl)cc(Cl)c4)n3)nn2)CC1` [Example 359, 2-(1-((2-(3,5-dichlorophenyl)-6-((6-(4-methylpiperazin-1-yl)pyridazin-3-yl)oxy)pyridin-4-yl)methyl)piperidin-4-yl)acetic acid], the results for the inhibition at 1 µM in assay [1], in assay [2] and in assay [3] were 28.9%, 62% and 45.3%, respectively.

With `CN1CCN(c2ccc(Oc3cc(CN4CCC(CCO)CC4)cc(-c4cc(Cl)cc(Cl)c4)n3)nn2)CC1` [Example 360, 2-(1-((2-(3,5-dichlorophenyl)-6-((6-(4-methylpiperazin-1-yl)pyridazin-3-yl)oxy)pyridin-4-yl)methyl)piperidin-4-yl)ethanol], the inhibition at 1 µM in assay [1] amounted to 0%; in assay [2], 3.44%; in assay [3] it was 2.83%.

For the compound `CN1CCN(c2ccc(Oc3cc(CN4CC[C@@H]5[C@H](CC4)[C@H]5C(=O)O)cc(-c4cc(Cl)cc(Cl)c4)n3)nn2)CC1` [Example 361, (1R,7S,8r)-4-((2-(3,5-dichlorophenyl)-6-((6-(4-methylpiperazin-1-yl)pyridazin-3-yl)oxy)pyridin-4-yl)methyl)-4-azabicyclo[5.1.0]octane-8-carboxylic acid], the inhibition at 1 µM in assay [1] stood at 26.6%; in assay [2], 42%; in assay [3], 12.1%.

Consider `CN1CCCN(c2ccc(Oc3cc(CN4CC[C@@H]5[C@H](CC4)[C@H]5C(=O)O)cc(-c4cc(Cl)cc(Cl)c4)n3)nn2)CC1` [Example 362, (1R,7S,8r)-4-((2-(3,5-dichlorophenyl)-6-((6-(4-methyl-1,4-diazepan-1-yl)pyridazin-3-yl)oxy)pyridin-4-yl)methyl)-4-azabicyclo[5.1.0]octane-8-carboxylic acid], for which the inhibition at 1 µM in assay [1] turned out to be 14.9%; in assay [2], 50.9%; in assay [3] it was 50.2%.

With `CC(=O)NCC1CCN(Cc2cc(Oc3ccc(N4CCN(CC(C)C(=O)O)CC4)nn3)nc(-c3cc(Cl)cc(Cl)c3)c2)CC1` (stereo not drawn) [Example 363, 3-(4-(6-((4-((4-(acetamidomethyl)piperidin-1-yl)methyl)-6-(3,5-dichlorophenyl)pyridin-2-yl)oxy)pyridazin-3-yl)piperazin-1-yl)-2-methylpropanoic acid], the values for the inhibition at 1 µM in assay [1], in assay [2] and in assay [3] were 0%, 2.8% and 0%, respectively.

For the compound `C[C@H](CC1CCN(Cc2cc(Oc3ccc(N4CCN(C)CC4)nn3)nc(-c3cc(Cl)cc(Cl)c3)c2)CC1)C(=O)O` [Example 364, (R)-3-(1-((2-(3,5-dichlorophenyl)-6-((6-(4-methylpiperazin-1-yl)pyridazin-3-yl)oxy)pyridin-4-yl)methyl)piperidin-4-yl)-2-methylpropanoic acid], the inhibition at 1 µM amounted to 31.4% in assay [1], 47.6% in assay [2] and 40% in assay [3].

Consider `C[C@@H](CC1CCN(Cc2cc(Oc3ccc(N4CCN(C)CC4)nn3)nc(-c3cc(Cl)cc(Cl)c3)c2)CC1)C(=O)O` [Example 365, (S)-3-(1-((2-(3,5-dichlorophenyl)-6-((6-(4-methylpiperazin-1-yl)pyridazin-3-yl)oxy)pyridin-4-yl)methyl)piperidin-4-yl)-2-methylpropanoic acid], for which the inhibition at 1 µM in assay [1] amounted to 0%; in assay [2], 17.4%; in assay [3], 32.4%.

In the case of `CCN1C[C@@H]2C[C@H]1CN2c1ccc(Oc2cc(CN3CCC(CC(=O)O)CC3)cc(-c3cc(Cl)cc(Cl)c3)n2)nn1` [Example 366, 2-(1-((2-(3,5-dichlorophenyl)-6-((6-((1S,4S)-5-ethyl-2,5-diazabicyclo[2.2.1]heptan-2-yl)pyridazin-3-yl)oxy)pyridin-4-yl)methyl)piperidin-4-yl)acetic acid], the inhibition at 1 µM in assay [1] amounted to 6.17%; in assay [2], 23.1%; in assay [3] it was 48.5%.

As for `CC(=O)N[C@H]1[C@@H]2CCN(Cc3cc(Oc4cnc(N5CCN(CCC(=O)O)CC5)nc4)nc(-c4cc(Cl)cc(Cl)c4)c3)CC[C@@H]21` [Example 367, 3-(4-(5-((4-(((1R,7S,8r)-8-acetamido-4-azabicyclo[5.1.0]octan-4-yl)methyl)-6-(3,5-dichlorophenyl)pyridin-2-yl)oxy)pyrimidin-2-yl)piperazin-1-yl)propanoic acid], the figures for the inhibition at 1 µM in assay [1], in assay [2] and in assay [3] were 27.4%, 54.7% and 15%, respectively.

As for `COC(=O)C(C)CCN1CCN(c2ncc(Oc3cc(CN4CCC(CNC(C)=O)CC4)cc(-c4cc(Cl)cc(Cl)c4)n3)cn2)CC1` (stereo not drawn) [Example 368, methyl4-(4-(5-((4-((4-(acetamidomethyl)piperidin-1-yl)methyl)-6-(3,5-dichlorophenyl)pyridin-2-yl)oxy)pyrimidin-2-yl)piperazin-1-yl)-2-methylbutanoate], the inhibition at 1 µM in assay [1] is 32.5%; in assay [2], 65.4%; in assay [3], 65.8%.

As for `CC(=O)NCC1CCN(Cc2cc(Oc3cnc(N4CCN(CCC(C)(C)C(=O)O)CC4)nc3)nc(-c3cc(Cl)cc(Cl)c3)c2)CC1` [Example 370, 4-(4-(5-((4-((4-(acetamidomethyl)piperidin-1-yl)methyl)-6-(3,5-dichlorophenyl)pyridin-2-yl)oxy)pyrimidin-2-yl)piperazin-1-yl)-2,2-dimethylbutanoic acid], the inhibition at 1 µM came to 24.6% in assay [1], 57% in assay [2] and 41.7% in assay [3].

Consider `CC(=O)NCC1CCN(Cc2cc(Oc3cnc(N4CCN(C(C)CCS(C)(=O)=O)CC4)nc3)nc(-c3cc(F)cc(Cl)c3)c2)CC1` (stereo not drawn) [Example 372, N-((1-((2-(3-chloro-5-fluorophenyl)-6-((2-(4-(4-(methylsulfonyl)butan-2-yl)piperazin-1-yl)pyrimidin-5-yl)oxy)pyridin-4-yl)methyl)piperidin-4-yl)methyl)acetamide], for which the inhibition at 1 µM in assay [1] turned out to be 18.2%; in assay [2], 45.3%; in assay [3], 81.8%.

On to `CNC(=O)NCC1CCN(Cc2cc(Oc3cnc(N4CCN(C(C)CCS(C)(=O)=O)CC4)nc3)nc(-c3cc(F)cc(Cl)c3)c2)CC1` (stereo not drawn) [Example 373, 1-((1-((2-(3-chloro-5-fluorophenyl)-6-((2-(4-(4-(methylsulfonyl)butan-2-yl)piperazin-1-yl)pyrimidin-5-yl)oxy)pyridin-4-yl)methyl)piperidin-4-yl)methyl)-3-methylurea], for which the figures for the inhibition at 1 µM in assay [1], in assay [2] and in assay [3] were 28.8%, 67.8% and 53.4%, respectively.

Consider `CN1CCCN(c2ncc(Oc3cc(CN4CCC(CC(=O)O)CC4)cc(-c4cc(F)cc(Cl)c4)n3)cn2)CC1` [Example 374, 2-(1-((2-(3-chloro-5-fluorophenyl)-6-((2-(4-methyl-1,4-diazepan-1-yl)pyrimidin-5-yl)oxy)pyridin-4-yl)methyl)piperidin-4-yl)acetic acid], for which the inhibition at 1 µM in assay [1] stood at 17.6%; in assay [2], 48.6%; in assay [3] it was 38.5%.

Consider `CN1CCN(c2ncc(Oc3cc(-c4cc(Cl)cc(Cl)c4)cc(CN4CCC(CC(=O)O)CC4)c3F)cn2)CC1` [Example 376, 2-(1-((3′,5′-dichloro-4-fluoro-5-((2-(4-methylpiperazin-1-yl)pyrimidin-5-yl)oxy)-[1,1′-biphenyl]-3-yl)methyl)piperidin-4-yl)acetic acid], for which the inhibition at 1 µM worked out at 13.5% in assay [1], 12.7% in assay [2] and 0% in assay [3].

As for `CN1CCN(c2ncc(Oc3nc(-c4cc(Cl)cc(Cl)c4)cc(CN4CCC(CC(=O)O)CC4)c3F)cn2)CC1` [Example 379, 2-(1-((6-(3,5-dichlorophenyl)-3-fluoro-2-((2-(4-methylpiperazin-1-yl)pyrimidin-5-yl)oxy)pyridin-4-yl)methyl)piperidin-4-yl)acetic acid], the inhibition at 1 µM in assay [1] is 41.5%; in assay [2], 51.2%; in assay [3], 35.2%.

Turning to `COC(=O)CCN1CCN(c2ccc(Oc3cc(CN4CCC(CNC(C)=O)CC4)cc(-c4cc(Cl)cc(Cl)c4)n3)cn2)CC1` [Example 385, methyl3-(4-(5-((4-((4-(acetamidomethyl)piperidin-1-yl)methyl)-6-(3,5-dichlorophenyl)pyridin-2-yl)oxy)pyridin-2-yl)piperazin-1-yl)propanoate], the inhibition at 1 µM in assay [1] was determined as 14.9%; in assay [2], 56.7%; in assay [3], 48.5%.

`O=C(O)CC1CCN(Cc2cc(Oc3cnc(N4CCN(Cc5cnn[nH]5)CC4)nc3)nc(-c3cc(Cl)cc(Cl)c3)c2)CC1` [Example 387, 2-(1-((2-((2-(4-((1H-l,2,3-triazol-5-yl)methyl)piperazin-1-yl)pyrimidin-5-yl)oxy)-6-(3,5-dichlorophenyl)pyridin-4-yl)methyl)piperidin-4-yl)acetic acid]: the inhibition at 1 µM in assay [1] was found to be 36.3%; in assay [2], 41.4%; in assay [3], 39.9%.
